From PMC6406002, “Comparison of the functional properties of trimeric and monomeric CaiT of Escherichia coli” (Scientific Reports, 2019)
Like-named read-outs stand apart in the source and are kept apart here.

Tests used:
Experiment in all cases: tryptophan fluorescence titration
Format in all cases: binding
CaiT [1] = molecular target: T1, CaiT (Escherichia coli, UniProt P31553, D288A)
T1 construct: full-length with C-terminal 6His tag (pET21a), expressed in E. coli JW0039 (delta caiT), Ni-NTA purified; homotrimer (D288A and D288R mostly monomeric); DDM-solubilized or in proteoliposomes
Text: (§1) tryptophan fluorescence titration on CaiT

CaiT [2] = molecular target: T2, CaiT (Escherichia coli, UniProt P31553)
T2 construct: full-length with C-terminal 6His tag (pET21a), expressed in E. coli JW0039 (delta caiT), Ni-NTA purified; homotrimer (D288A and D288R mostly monomeric); DDM-solubilized or in proteoliposomes
Text: as §1

CaiT [3] = molecular target: T3, CaiT (Escherichia coli, UniProt P31553, D288R)
T3 construct: full-length with C-terminal 6His tag (pET21a), expressed in E. coli JW0039 (delta caiT), Ni-NTA purified; homotrimer (D288A and D288R mostly monomeric); DDM-solubilized or in proteoliposomes
Text: as §1

C[N+](C)(C)C[C@H](O)CC(=O)O [L-carnitine]
Kd (CaiT [1]; read-out: L-carnitine / Kd): 1.8 ± 0.9 mM
Kd (CaiT [2]; read-out: L-carnitine / Kd): 3.3 ± 0.2 mM
Kd (CaiT [3]; read-out: L-carnitine / Kd): 1.9 ± 1 mM

C[N+](C)(C)CCCC(=O)[O-] [γ-butyrobetaine]
Kd (CaiT [1]; read-out: γ-butyrobetaine / Kd): 3.3 ± 1.3 mM
Kd (CaiT [2]; read-out: γ-butyrobetaine / Kd): 3.4 ± 0.1 mM
Kd (CaiT [3]; read-out: γ-butyrobetaine / Kd): 11.4 ± 4.4 mM
